Test results taken from US7556796B2, “Directed complementation” (AVEO Pharmaceuticals, Inc., priority 2005, dated 2009).

What was measured:
[1] = system: propagated tumors from Her2-dependent inducible spontaneous breast tumors; test: Drug response assay with propagated Her2-dependent primary breast tumors; assay type: in vivo, mouse; conditions: 15 or 30 mg/kg, three doses at 5-day intervals, one week after last dosing
Procedure: From each primary tumor, about 0.1 million cells/site were injected sub-cutaneously into 30 sites on immunocompromised mice, which were then fed with doxycycline water. Each mouse received two injections, one on each side of its back (subcutaneous). Thus, one primary tumor was expanded into 30 propagated tumors onto 15 mice, each of the mice developing two tumors on its back. Out of these thirty tumors, 10 tumor-bearing mice were treated with vehicle (5 parts Tween-80, 5 parts absolute ethyl alcohol, 90 parts 5% dextrose), another 10 tumor bearing-mice were treated with 15 mg/kg docetaxel (Biochemika, cat. No. 01885), and the remaining 10 tumor-bearing mice were treated with 30 mg/kg docetaxel (which was already determined to be near MTD for this drug). In total, five primary tumors were expanded to 150 tumors in 75 animals.
When the tumors reached approximately 5 mm^3 in size, the treatments were begun. The animals were given three doses with 5-day intervals. The experiment was terminated one week after the final dosing. Among propagated tumors derived from any given primary tumor, uniformity in terms of latency, growth rate and drug response was expected (intra-tumoral uniformity). In contrast, among propagated tumors derived from different primary tumors variation in terms of growth rate, latency and drug response was expected (inter-tumoral variation). […]

[2] = Maximum tolerated dose (previously determined); conditions: mouse, in vivo; already determined to be near MTD for this drug

## CC(=O)O[C@@]12CO[C@@H]1C[C@H](O)[C@@]1(C)C(=O)[C@H](O)C3=C(C)[C@@H](OC(=O)[C@H](O)[C@@H](NC(=O)OC(C)(C)C)c4ccccc4)C[C@@](O)([C@@H](OC(=O)c4ccccc4)[C@H]21)C3(C)C [docetaxel]
[1]; propagated tumors from one of the five primary tumors
  drug response (tumor size vs vehicle): significant reduction in tumor growth
[1]; propagated tumors from the remaining four of five primary tumors
  drug response (tumor size vs vehicle): did not show any effect
[2]
  MTD: ~30 mg/kg
